What was measured:
Assay type in all cases: cell-based
STAT3 = biological target: T1, STAT3 (Homo sapiens, UniProt P40763); test: STAT3 reporter gene assay (luciferase), LNCaP stable cell line (pSTAT3-TA-luc), IL-6 stimulation
T1 construct: plasmid pSTAT3-TA-luc), which contains a stably operating STAT3 promoter; endogenous in cells
Procedure, shortened: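 LNCaP cells stably carrying pSTAT3-TA-luc, in RPMI1640 with 3% DCC-FBS, were treated with compound and then stimulated with 10 ng/mL IL-6 for 24–48 h at 37 °C. Luciferase activity was measured in lysates. A parallel plate measured viability by CellTiter-Glo, with stimulated 0.1% DMSO wells as the positive control.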

LNCaP = test: Cell growth inhibition assay, prostate cancer cell line LNCaP (medium with 10 ng/mL IL-6); settings: Homo sapiens, medium supplemented with 10 ng/mL of IL-6, 10,000 cells/well
DU-145 = test: Cell growth inhibition assay, prostate cancer cell line DU-145; settings: Homo sapiens, DU-145 prostate cancer cell line
Procedure, shortened: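 Viability by CellTiter-Glo luminescence after 72–96 h of compound dosing at 37° C. under 5% CO2; DU-145 and HCT116 seeded at 3,000 cells/well, SW626 at 5,000 cells/well.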

HEL92.1.7 = test: Cell growth inhibition assay, blood cancer cell line HEL92.1.7; settings: Homo sapiens, HEL 92.1.7, HEL92.1.7 blood cancer cell line
Procedure: The inhibitory effects of the compounds of the present invention against the growth of cancer cells were evaluated as shown below. The cancer cell lines including stomach cancer cell line (AGS), breast cancer cell lines (MDA-MB-231, MDA-MB-468, and BT-549), prostate cancer cell lines (LNCaP and DU-145), colon cancer cell line (HCT116), ovarian cancer cell line (SW626), liver cancer cell line (Hep3B), kidney cancer cell line (ACHN), lung cancer cell line (NCI-H23) and blood cancer cell lines (HEL92.1.7 and U266) were cultured under the protocol provided by each supplier. A medium supplemented with 10 ng/mL of IL-6 was used for LNCaP, a prostate cancer cell line, when treated with a drug. Each type of cells to be used in experiments were sub-cultured in a 96-well plate by counting the exact number of cells using Tali™ Image-based Cytometer (Life Technologies). In a 96-well plate, AGS, HCT116, and DU-145 were employed with 3,000 cells/well; NCI-H23, SW626, Hep3B, ACHN, BT-549, MDA-MB-231, HEL92.1.7, and U266 were employed with 5,000 cells/well; and LNCaP and MDA-MB-468 were employed with 10,000 cells/well. The cells were treated with the compounds listed in Examples which were diluted in various concentrations. Upon completion of the compounds treatment, AGS, HCT116, SW626, DU145, NCI-H23, Hep3B, ACHN, BT-549, LNCaP, HEL92.1.7, and U266 cells were cultured at 37° C. under 5% CO2 for from 72 to 96 hours, and MDA-MB-231 and MDA-MB-468 cells were cultured at 37° C. in air for from 72 to 96 hours. Subsequently, the cells were observed under microscope and drug precipitation and particular findings were investigated and recorded. And then, the 96-well plate was placed at room temperature for 30 minutes, added with 20 μL/well of CellTiter-Glo solution (Cat No. G7573, Promega) and shaken for 10 minutes, followed by being subjected to the measurement using PHERAstar™ microplate reader (BMG LABTECH) according to the supplier's general luminometer protocol. Wells where only culture liquid added without cell plating were used as a negative control, whereas wells where culture liquid containing 0.1% DMSO instead of the compounds listed in Examples were used as a positive control.

T1 sequence (P40763 whole entry): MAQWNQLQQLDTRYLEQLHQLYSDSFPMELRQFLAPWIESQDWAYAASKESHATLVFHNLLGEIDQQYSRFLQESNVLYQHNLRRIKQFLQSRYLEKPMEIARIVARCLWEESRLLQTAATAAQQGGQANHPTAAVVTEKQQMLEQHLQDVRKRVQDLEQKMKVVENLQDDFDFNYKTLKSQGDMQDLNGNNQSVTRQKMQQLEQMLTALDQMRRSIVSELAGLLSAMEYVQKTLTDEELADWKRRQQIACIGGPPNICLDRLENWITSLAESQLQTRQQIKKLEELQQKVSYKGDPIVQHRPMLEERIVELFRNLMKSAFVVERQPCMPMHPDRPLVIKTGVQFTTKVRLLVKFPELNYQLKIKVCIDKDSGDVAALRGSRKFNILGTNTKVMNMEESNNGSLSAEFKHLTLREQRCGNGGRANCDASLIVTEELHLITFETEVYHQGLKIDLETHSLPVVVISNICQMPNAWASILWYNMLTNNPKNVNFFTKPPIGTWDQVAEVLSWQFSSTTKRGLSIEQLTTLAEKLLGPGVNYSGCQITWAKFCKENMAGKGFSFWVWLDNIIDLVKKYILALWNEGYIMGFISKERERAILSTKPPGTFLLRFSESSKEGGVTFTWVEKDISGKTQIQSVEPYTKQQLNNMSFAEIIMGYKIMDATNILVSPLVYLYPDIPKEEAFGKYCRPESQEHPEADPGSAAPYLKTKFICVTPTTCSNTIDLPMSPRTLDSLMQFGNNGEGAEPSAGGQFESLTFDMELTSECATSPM

SMILES	IC50 (STAT3) [µM]	IC50 (LNCaP) [µM]	IC50 (DU-145) [µM]	IC50 (HEL92.1.7) [µM]
CC(C)(C)OC(=O)N1CCC(Oc2cc(OC(F)(F)F)cc(C(C)(C)c3cc(Cl)cc(NC(=O)c4cc5cc(NS(C)(=O)=O)ccc5s4)c3)c2)CC1 [Example 95, tert-butyl 4-(3-(2-(3-chloro-5-(5-(methylsulfonamido)benzo[b]thiophene-2-carboxamido)phenyl)propan-2-yl)-5-(trifluoromethoxy)phenoxy)piperidine-1-carboxylate]	0.11	0.015	0.011	0.69
CC(C)(c1cc(Cl)cc(NC(=O)c2cc3cc(NS(C)(=O)=O)ccc3s2)c1)c1cc(OC2CCNCC2)cc(OC(F)(F)F)c1 [Example 96, N-(3-chloro-5-(2-(3-(piperidin-4-yloxy)-5-(trifluoromethoxy)phenyl)propan-2-yl)phenyl)-5-(methylsulfonamido)benzo[b]thiophene-2-carboxamide]	3.4	> 1.1	> 1.1	> 1.1
CC(C)Oc1cc(OC(F)(F)F)cc(C(C)(C)c2cc(Cl)cc(NC(=O)c3cc4cc(NS(=O)(=O)N5CCOCC5)ccc4s3)c2)c1 [Example 103, N-(3-chloro-5-(2-(3-isopropoxy-5-(trifluoromethoxy)phenyl)propan-2-yl)phenyl)-5-(morpholine-4-sulfonamido)benzo[b]thiophene-2-carboxamide]	0.11	0.035	0.045	0.16
Cn1cc(Cc2cc(OC(F)(F)C(F)F)cc(C(C)(C)c3cc(Cl)cc(NC(=O)c4cc5cc(NS(C)(=O)=O)ccc5s4)c3)c2)cn1 [Example 138, N-(3-chloro-5-(2-(3-((1-methyl-1H-pyrazol-4-yl)methyl)-5-(1,1,2,2-tetrafluoroethoxy)phenyl)propan-2-yl)phenyl)-5-(methylsulfonamido) benzo[b]thiophene-2-carboxamide]	0.02	0.054	0.018	0.26
CN(C)S(=O)(=O)N1CCN(Cc2cc(OC(F)(F)C(F)F)cc(C(C)(C)c3cc(Br)cc(NC(=O)c4cc5cc(NS(C)(=O)=O)ccc5s4)c3)c2)CC1 [Example 139, N-(3-bromo-5-(2-(3-((4-(N,N-dimethylsulfamoyl)piperazin-1-yl)methyl)-5-(1,1,2,2-tetrafluoroethoxy)phenyl)propan-2-yl)phenyl)-5-(methylsulfonamido)benzo[b]thiophene-2-carboxamide]	0.11	0.17	0.073	0.69
CC(C)(c1cc(F)cc(NC(=O)c2cc3cc(NS(C)(=O)=O)ccc3s2)c1)c1cc(CN2CCOCC2)cc(OC(F)(F)C(F)F)c1 [Example 140, N-(3-fluoro-5-(2-(3-(morpholinomethyl)-5-(1,1,2,2-tetrafluoroethoxy)phenyl)propan-2-yl)phenyl)-5-(methylsulfonamido)benzo[b]thiophene-2-carboxamide]	0.09	0.13	0.053	0.3
CC(C)(c1cc(Br)cc(NC(=O)c2cc3cc(NS(C)(=O)=O)ccc3s2)c1)c1cc(CN2CCN(C3COC3)CC2)cc(OC(F)(F)C(F)F)c1 [Example 141, N-(3-bromo-5-(2-(3-((4-(oxetan-3-yl)piperazin-1-yl)methyl)-5-(1,1,2,2-tetrafluoroethoxy)phenyl)propan-2-yl)phenyl)-5-(methylsulfonamido)benzo[b]thiophene-2-carboxamide]	0.38	0.36	0.14	1.05
CC(C)Oc1cc(-c2ccnn2C)cc(C(C)(C)c2cc(Cl)cc(NC(=O)c3cc4cc(NS(C)(=O)=O)ccc4s3)c2)c1 [Example 142, N-(3-chloro-5-(2-(3-isopropoxy-5-(1-methyl-1H-pyrazol-5-yl)phenyl)propan-2-yl)phenyl)-5-(methylsulfonamido)benzo[b]thiophene-2-carboxamide]	0.13	0.33	0.09	0.33
CC(C)Oc1cc(-c2cnn(C)c2)cc(C(C)(C)c2cc(Cl)cc(NC(=O)c3cc4cc(NS(C)(=O)=O)ccc4s3)c2)c1 [Example 143, N-(3-chloro-5-(2-(3-isopropoxy-5-(1-methyl-1H-pyrazol-4-yl)phenyl)propan-2-yl)phenyl)-5-(methylsulfonamido)benzo[b]thiophene-2-carboxamide]	0.29	0.47	0.18	0.48

The next lines start with the values.

IC50 (STAT3) [µM]	IC50 (LNCaP) [µM]	IC50 (DU-145) [µM]	IC50 (HEL92.1.7) [µM]	SMILES
5.2	2.6	1	> 1.1	CC(C)Oc1cc(N2CC[N+](C)([O-])CC2)cc(C(C)(C)c2cc(Cl)cc(NC(=O)c3cc4cc(NS(C)(=O)=O)ccc4s3)c2)c1 [Example 144]
0.067	0.04	0.06	0.16	CC(C)Oc1cc(N2CCOCC2)cc(C(C)(C)c2cc(Cl)cc(NC(=O)c3cc4cc(NS(C)(=O)=O)ccc4s3)c2)c1 [Example 145, N-(3-chloro-5-(2-(3-isopropoxy-5-morpholinophenyl)propan-2-yl)phenyl)-5-(methylsulfonamido)benzo[b]thiophene-2-carboxamide]
0.073	0.022	0.019	0.32	CC(C)Oc1cc(N2CCCC2)cc(C(C)(C)c2cc(Cl)cc(NC(=O)c3cc4cc(NS(C)(=O)=O)ccc4s3)c2)c1 [Example 146, N-(3-chloro-5-(2-(3-isopropoxy-5-(pyrrolidin-1-yl)phenyl)propan-2-yl)phenyl)-5-(methylsulfonamido)benzo[b]thiophene-2-carboxamide]
0.67	0.8	0.47	1.04	CC(C)Oc1cc(N2CCN(C)CC2)cc(C(C)(C)c2cc(Cl)cc(NC(=O)c3cc4cc(NS(C)(=O)=O)ccc4s3)c2)c1 [Example 147, N-(3-chloro-5-(2-(3-isopropoxy-5-(4-methylpiperazin-1-yl)phenyl)propan-2-yl)phenyl)-5-(methylsulfonamido)benzo[b]thiophene-2-carboxamide]
> 10	0.58	0.38	1	COc1cc(OC(F)(F)F)cc(C(C)(C)c2cc(Cl)nc(NC(=O)c3cc4cc(NS(C)(=O)=O)ccc4s3)c2)c1 [Example 148, N-(6-chloro-4-(2-(3-methoxy-5-(trifluoromethoxy)phenyl)propan-2-yl)pyridin-2-yl)-5-(methylsulfonamido)benzo[b]thiophene-2-carboxamide]
0.07	0.05	0.03	0.14	COc1cc(OC(F)(F)F)cc(C(C)(C)c2cc(NC(=O)c3cc4cc(NS(C)(=O)=O)ccc4s3)cc(Cl)n2)c1 [Example 149, N-(2-chloro-6-(2-(3-methoxy-5-(trifluoromethoxy)phenyl)propan-2-yl)pyridin-4-yl)-5-(methylsulfonamido)benzo[b]thiophene-2-carboxamide]
0.014	0.016	0.008	0.031	COc1cc(OC(F)(F)F)cc(C(C)(C)c2cc(Cl)cc(NC(=O)c3cc4cc(NS(C)(=O)=O)ccc4s3)n2)c1 [Example 150, N-(4-chloro-6-(2-(3-methoxy-5-(trifluoromethoxy)phenyl)propan-2-yl)pyridin-2-yl)-5-(methylsulfonamido)benzo[b]thiophene-2-carboxamide]
2.2	0.36	> 1.1	4.7	CC(C)Oc1cc(OC(F)(F)F)cc(C(C)(C)c2cc(Cl)cc(NC(=O)c3cc4nc(NS(C)(=O)=O)cnc4s3)c2)c1 [Example 151, N-(3-chloro-5-(2-(3-isopropoxy-5-(trifluoromethoxy)phenyl)propan-2-yl)phenyl)-2-(methylsulfonamido)thieno[2,3-b]pyrazine-6-carboxamide]

— patent US10562912B2 (C&C Research Laboratories, priority 2013, dated 2020)
